Test results as given in article PMC7181660, “A novel specific PERK activator reduces toxicity and extends survival in Huntington's disease models” (Scientific Reports, 2020).

What was measured:
panel of 391 kinases [1] = target: panel of 391 kinases (Homo sapiens, UniProt O14965); assay: biochemical; format: biochemical; conditions: Aurora A, MK-28 1 µM, ATP 1 µM
panel of 391 kinases [2] = target: panel of 391 kinases (Homo sapiens, UniProt O43293); assay: biochemical; format: biochemical; conditions: kinase ZIPK/DAPK3, compound at 1 µM, single dose in duplicates, 1 µM ATP
panel of 391 kinases [3] = target: panel of 391 kinases (Homo sapiens, UniProt O75582); assay: biochemical; format: biochemical; conditions: MSK1/RPS6KA5, MK-28 1 µM, ATP 1 µM
panel of 391 kinases [4] = target: panel of 391 kinases (Homo sapiens, UniProt P11309); assay: biochemical; format: biochemical; conditions: PIM1, MK-28 1 µM, ATP 1 µM
panel of 391 kinases [5] = target: panel of 391 kinases (Homo sapiens, UniProt P30291); assay: biochemical; format: biochemical; conditions: WEE1, MK-28 1 µM, ATP 1 µM
panel of 391 kinases [6] = target: panel of 391 kinases (Homo sapiens, UniProt P31751); assay: biochemical; format: biochemical; conditions: AKT2, MK-28 1 µM, ATP 1 µM
panel of 391 kinases [7] = target: panel of 391 kinases (Homo sapiens, UniProt P41279); assay: biochemical; format: biochemical; conditions: COT1/MAP3K8, MK-28 1 µM, ATP 1 µM
panel of 391 kinases [8] = target: panel of 391 kinases (Homo sapiens, UniProt P42680); assay: biochemical; format: biochemical; conditions: TEC, MK-28 1 µM, ATP 1 µM
panel of 391 kinases [9] = target: panel of 391 kinases (Homo sapiens, UniProt P43250); assay: biochemical; format: biochemical; conditions: GRK6, MK-28 1 µM, ATP 1 µM
panel of 391 kinases [10] = target: panel of 391 kinases (Homo sapiens, UniProt P54760); assay: biochemical; format: biochemical; conditions: EPHB4; MK-28 1 µM; ATP 1 µM; read-out: % Enzyme Activity (relative to DMSO controls)
panel of 391 kinases [11] = target: panel of 391 kinases (Homo sapiens, UniProt Q13557); assay: biochemical; format: biochemical; conditions: CAMK2d, MK-28 1 µM, ATP 1 µM
panel of 391 kinases [12] = target: panel of 391 kinases (Homo sapiens, UniProt Q15208); assay: biochemical; format: biochemical; conditions: STK38/NDR1, MK-28 1 µM, ATP 1 µM
panel of 391 kinases [13] = target: panel of 391 kinases (Homo sapiens, UniProt Q15418); assay: biochemical; format: biochemical; conditions: RSK1, MK-28 1 µM, ATP 1 µM
panel of 391 kinases [14] = target: panel of 391 kinases (Homo sapiens, UniProt Q8IW41); assay: biochemical; format: biochemical; conditions: MAPKAPK5/PRAK, MK-28 1 µM, ATP 1 µM
panel of 391 kinases [15] = target: panel of 391 kinases (Homo sapiens, UniProt Q8IYT8); assay: biochemical; format: biochemical; conditions: ULK2, MK-28 1 µM, ATP 1 µM
panel of 391 kinases [16] = target: panel of 391 kinases (Homo sapiens, UniProt Q8NG66); assay: biochemical; format: biochemical; conditions: NEK11, MK-28 1 µM, ATP 1 µM
panel of 391 kinases [17] = target: panel of 391 kinases (Homo sapiens, UniProt Q8TF76); assay: biochemical; format: biochemical; conditions: Haspin, MK-28 1 µM, ATP 1 µM
panel of 391 kinases [18] = target: panel of 391 kinases (Homo sapiens, UniProt Q96KB5); assay: biochemical; format: biochemical; conditions: PBK/TOPK, MK-28 1 µM, ATP 1 µM
panel of 391 kinases [19] = target: panel of 391 kinases (Homo sapiens, UniProt Q96NX5); assay: biochemical; format: biochemical; conditions: CAMK1g, MK-28 1 µM, ATP 1 µM
panel of 391 kinases [20] = target: panel of 391 kinases (Homo sapiens, UniProt Q99986); assay: biochemical; format: biochemical; conditions: VRK1, MK-28 1 µM, ATP 1 µM
panel of 391 kinases [21] = target: panel of 391 kinases (Homo sapiens, UniProt Q9UK32); assay: biochemical; format: biochemical; conditions: RSK4, MK-28 1 µM, ATP 1 µM
panel of 391 kinases [22] = target: panel of 391 kinases (Homo sapiens, UniProt Q9UPE1); assay: biochemical; format: biochemical; conditions: MSSK1/STK23, MK-28 1 µM, ATP 1 µM
[23] = Body weight during therapeutic study (Alzet minipumps); format: in vivo, mice; conditions: 1 mg/kg subcutaneous minipump, 7 weeks after pump implantation
Protocol: Alzet pumps model 1004 (Alzet, USA), with a rate of 0.11 µl/hour and 28 days effective compound delivery was used. MK-28 compound was dissolved in 1:1 DMSO/PEG400 and prepared to delivery subcutaneously 6 mg/kg MK-28 for toxicity studies (n = 8) or 1 mg/kg for therapeutic evaluation in R6/2 mice (n = 72). For toxicity studies mice receiving six times the therapeutic dose of MK-28 or vehicle were weighed every two days for two consecutive weeks. […]. Alzet pumps were implanted in 4 weeks old mice and MK-28 was administered at 1 mg/kg with continuous dosing for 28 days. […]

R6/2 HD mouse model = assay: Blood glucose levels; format: in vivo, mice; conditions: TG + MK-28
Protocol: For blood glucose measurements, blood samples from all the evaluated groups (n = 34) were obtained from the tail and measured with the Accu-Check glucose monitor (Roche Diagnostics, USA). Two independent glucose measurements were performed at the same hour 3 and 12 weeks after birth corresponding to the asymptomatic and symptomatic stages respectively. Glucose levels are expressed in mg/dl.

[24] = read-out: % Enzyme Activity (relative to DMSO controls)

CN(/N=C\c1ccc(O)c(O)c1)c1nc(-c2ccccc2)cc(-c2ccccc2)n1 [MK-28]
% Enzyme Activity (relative to DMSO controls) (panel of 391 kinases [1]): 71.13%
remaining activity at 1 µM (panel of 391 kinases [1]; [24]): 73.2%
% Enzyme Activity (relative to DMSO controls) (panel of 391 kinases [2]): 79.41%
remaining activity at 1 µM (panel of 391 kinases [2]; [24]): 79.9%
% Enzyme Activity (relative to DMSO controls) (panel of 391 kinases [3]): 97.92%
remaining activity at 1 µM (panel of 391 kinases [3]; [24]): 98.4%
% Enzyme Activity (relative to DMSO controls) (panel of 391 kinases [4]): 100.72%
remaining activity at 1 µM (panel of 391 kinases [4]; [24]): 101%
% Enzyme Activity (relative to DMSO controls) (panel of 391 kinases [5]): 112.80%
remaining activity at 1 µM (panel of 391 kinases [5]; [24]): 114%
% Enzyme Activity (relative to DMSO controls) (panel of 391 kinases [6]): 95.73%
remaining activity at 1 µM (panel of 391 kinases [6]; [24]): 98.1%
% Enzyme Activity (relative to DMSO controls) (panel of 391 kinases [7]): 95.23%
remaining activity at 1 µM (panel of 391 kinases [7]; [24]): 96%
% Enzyme Activity (relative to DMSO controls) (panel of 391 kinases [8]): 100.49%
remaining activity at 1 µM (panel of 391 kinases [8]; [24]): 101%
% Enzyme Activity (relative to DMSO controls) (panel of 391 kinases [9]): 102.17%
remaining activity at 1 µM (panel of 391 kinases [9]; [24]): 104%
remaining activity at 1 µM (panel of 391 kinases [10]): 92.8%
% Enzyme Activity (relative to DMSO controls) (panel of 391 kinases [11]): 94.06%
remaining activity at 1 µM (panel of 391 kinases [11]; [24]): 94.2%
% Enzyme Activity (relative to DMSO controls) (panel of 391 kinases [12]): 95.54%
remaining activity at 1 µM (panel of 391 kinases [12]; [24]): 96.8%
% Enzyme Activity (relative to DMSO controls) (panel of 391 kinases [13]): 96.73%
remaining activity at 1 µM (panel of 391 kinases [13]; [24]): 96.8%
% Enzyme Activity (relative to DMSO controls) (panel of 391 kinases [14]): 77.52%
remaining activity at 1 µM (panel of 391 kinases [14]; [24]): 77.8%
% Enzyme Activity (relative to DMSO controls) (panel of 391 kinases [15]): 98.62%
remaining activity at 1 µM (panel of 391 kinases [15]; [24]): 102%
% Enzyme Activity (relative to DMSO controls) (panel of 391 kinases [16]): 90.54%
remaining activity at 1 µM (panel of 391 kinases [16]; [24]): 93.3%
% Enzyme Activity (relative to DMSO controls) (panel of 391 kinases [17]): 102.02%
remaining activity at 1 µM (panel of 391 kinases [17]; [24]): 116%
% Enzyme Activity (relative to DMSO controls) (panel of 391 kinases [18]): 93.64%
remaining activity at 1 µM (panel of 391 kinases [18]; [24]): 94.2%
% Enzyme Activity (relative to DMSO controls) (panel of 391 kinases [19]): 96.34%
remaining activity at 1 µM (panel of 391 kinases [19]; [24]): 100%
% Enzyme Activity (relative to DMSO controls) (panel of 391 kinases [20]): 104.86%
remaining activity at 1 µM (panel of 391 kinases [20]; [24]): 106%
% Enzyme Activity (relative to DMSO controls) (panel of 391 kinases [21]): 101.39%
remaining activity at 1 µM (panel of 391 kinases [21]; [24]): 102%
% Enzyme Activity (relative to DMSO controls) (panel of 391 kinases [22]): 107.79%
remaining activity at 1 µM (panel of 391 kinases [22]; [24]): 108%
weight, MK-28 vs vehicle [23]: no significant differences
glucose increase ratio between disease stages (symptomatic vs asymptomatic) (R6/2 HD mouse model): 109.60 ± 5.04%
